According to the supplement of paper PMC13380429:

Key:
Conditions in all cases: 72 h
Caco-2 [1] = test: cell viability relative to DMSO; higher = less toxic
Calu-3 [2] = test: as above
HepG2 [3] = test: as above
U2OS [4] = test: as above
Vero E6 [5] = test: as above
Caco-2 [6] = test: relative viability EC50 (midpoint between 100% and the lowest measured viability); higher = less toxic
Calu-3 [7] = test: as above
HepG2 [8] = test: as above
U2OS [9] = test: as above
Vero E6 [10] = test: as above
Caco-2 [11] = test: drug sensitivity score (DSS) for viability; higher = more toxic; extreme values may be limits of the assay
Calu-3 [12] = test: as above
HepG2 [13] = test: as above
U2OS [14] = test: as above
Vero E6 [15] = test: as above

Row | SMILES | cell viability (Caco-2 [1]; 1 nM) [%] | cell viability (Caco-2 [1]; 10 nM) [%] | cell viability (Caco-2 [1]; 100 nM) [%] | cell viability (Caco-2 [1]; 1000 nM) [%] | cell viability (Caco-2 [1]; 10000 nM) [%] | cell viability (Calu-3 [2]; 1 nM) [%] | cell viability (Calu-3 [2]; 10 nM) [%] | cell viability (Calu-3 [2]; 100 nM) [%] | cell viability (Calu-3 [2]; 1000 nM) [%] | cell viability (Calu-3 [2]; 10000 nM) [%] | cell viability (HepG2 [3]; 1 nM) [%] | cell viability (HepG2 [3]; 10 nM) [%] | cell viability (HepG2 [3]; 100 nM) [%] | cell viability (HepG2 [3]; 1000 nM) [%] | cell viability (HepG2 [3]; 10000 nM) [%] | cell viability (U2OS [4]; 1 nM) [%] | cell viability (U2OS [4]; 10 nM) [%] | cell viability (U2OS [4]; 100 nM) [%] | cell viability (U2OS [4]; 1000 nM) [%] | cell viability (U2OS [4]; 10000 nM) [%] | cell viability (Vero E6 [5]; 1 nM) [%] | cell viability (Vero E6 [5]; 10 nM) [%] | cell viability (Vero E6 [5]; 100 nM) [%] | cell viability (Vero E6 [5]; 1000 nM) [%] | cell viability (Vero E6 [5]; 10000 nM) [%] | relative viability EC50 (Caco-2 [6]) [µM] | relative viability EC50 (Calu-3 [7]) [µM] | relative viability EC50 (HepG2 [8]) [µM] | relative viability EC50 (U2OS [9]) [µM] | relative viability EC50 (Vero E6 [10]) [µM] | drug sensitivity score (Caco-2 [11]) | drug sensitivity score (Calu-3 [12]) | drug sensitivity score (HepG2 [13]) | drug sensitivity score (U2OS [14]) | drug sensitivity score (Vero E6 [15])
1 | CCc1ccc(OCc2ccccc2C(=O)Nc2ccc3nc(C)cc(N)c3c2)cc1 [JTC-801] | 97.8 | 94.5 | 90.4 | 91.9 | 0.6 | 97.7 | 102 | 100 | 100 | 0.2 | 114 | 95.6 | 102 | 89 | -0.1 | 96 | 99.2 | 96.6 | 97.8 | -0.1 | 101 | 99.7 | 102 | 94.1 | -0.1 | 2.49 | 3.18 | 2.25 | 3 | 2.69 | 6.8 | 5.6 | 7.4 | 5.9 | 6.4
2 | O=C(OC(C(F)(F)F)C(F)(F)F)N1CCC(C(O)(c2ccc3c(c2)OCO3)c2ccc3c(c2)OCO3)CC1 [KML29] | 94.6 | 99.6 | 117 | 97 | 106 | 109 | 105 | 98 | 108 | 92.6 | 96.7 | 96.1 | 94.1 | 106 | 98.8 | 103 | 99.8 | 101 | 95.5 | 95.5 | 94 | 96.2 | 97.8 | 98.3 | 91.7 | > 10 | > 10 | > 10 | > 10 | > 10 | 0 | 0 | 0 | 0 | 0
3 | O=C(O)[C@@H]1C[C@@H](O)CN1 [L-hydroxyproline] | 80.5 | 92.4 | 100 | 96.1 | 95.8 | 95 | 94.4 | 93.5 | 96.9 | 106 | 101 | 112 | 99.7 | 108 | 90.8 | 95.9 | 102 | 100 | 95.2 | 102 | 104 | 114 | 99.5 | 105 | 94.4 | > 10 | > 10 | > 10 | > 10 | > 10 | 0 | 0 | 0 | 0 | 0
